Read-outs that look alike come from different tables or passages of the source.
What was measured:
[1] = molecular target: BCL2 (Homo sapiens (Human), UniProt P10415); assay: Molecular level activity test of anti-apoptotic protein BCL2 (HTRF, binding to Bim peptide); details: HTRF, binding of BCL2 to Bim peptide; read-out: BCL2 nM (inhibitory activity, IC50)
Outline: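 Step one: compound, supplied in 2% DMSO, is mixed with His-tagged BCL2 and biotinylated Bim peptide and reacted for 1 h. Step two: anti-His and streptavidin-XL665 reagents in detection buffer are added. Step three: after a 4 h room-temperature incubation, time-resolved fluorescence is measured.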

[2] = molecular target: BCL-XL (Homo sapiens (Human), UniProt Q07817); assay: BCL-XL enzyme molecular level activity test (HTRF, binding to BIM peptide); details: binding of BCL-XL to BIM peptide, read-out: BCL-XL inhibitory activity (IC50)
Outline: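 HTRF binding assay: His-tagged recombinant BCL-XL with biotin-BIM peptide and compound (2% DMSO), 1 h. Anti-His and streptavidin-XL665 detection reagents added, 4 h at room temperature. Excitation 320 nm; 665/615 nm ratio reflects binding, with no-protein background and no-compound full-binding controls.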

[3] = molecular target: BCL2 (D103Y) (Homo sapiens (Human), UniProt P10415, D103Y); assay: Molecular level activity test of BCL2 (D103Y) (HTRF, binding to Bim peptide); details: read-out: BCL-2 (D103Y) (nM) (inhibitory activity, IC50)
Outline: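 His-tagged recombinant protein mixed with biotinylated BIM peptide and compound (2% DMSO), reacted 1 h. Anti-His and streptavidin-XL665 detection reagents then added and incubated 4 h at room temperature before HTRF read-out of binding inhibition.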

[4] = molecular target: human CYP3A4 enzyme (Homo sapiens (Human), UniProt P08684); assay: CYP3A4 enzyme inhibitory activity (Vivid CYP3A4 Green screening kit)
Method: The inhibitory activity of compounds on human CYP3A4 enzyme was detected using a VIVID™ CYP3A4 GREEN SCRNING KIT reagent kit. The Vivid™ CYP450 screening kit includes a Vivid™ substrate, Vivid™ fluorescence standard, reaction buffer, Vivid™ regeneration system, NADP+ and CYP450 BACULOSOMES™ Plus reagent. Operations were performed following the instructions, and a blank control group was set up without adding any compounds.
The IC50 value of the compounds inhibiting human CYP3A4 enzyme was calculated using Graphpad Prism 7.00 software through the formula Y=100/(1+10^((Log IC50−X)*HillSlope)).

[5] = system: RS4; 11 cells; assay: Tumor proliferation inhibitory activity test (MTS) on RS4; 11; type: cell-based; details: Homo sapiens, RS4-11, 72 h, 3 days incubation
Outline: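 RS4;11 cells were exposed to serially diluted compound (0.2% DMSO control) for 3 days at 37 °C/5% CO2, followed by MTS for 3–4 h. Read-out was OD490−OD690, and inhibition was calculated relative to the DMSO and blank wells.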

[6] = molecular target: BCL2 (G101V) (Homo sapiens (Human), UniProt P10415, G101V); assay: Molecular level activity test of anti-apoptotic protein BCL2 (G101V) (HTRF, binding to Bim peptide); details: inhibition of BCL2 (G101V) binding to Bim peptide, read-out: BCL-2 (G101V)
Outline: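 His-tagged recombinant BCL2 (G101V) incubated 1 h with biotin-BIM peptide and compound (2% DMSO), then anti-His and streptavidin-XL665 detection reagents added for 4 h at room temperature. HTRF signal reflects compound effect on BCL2–BIM binding.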

[7] = read-out: CYP3A4 (IC50), Vivid CYP3A4 Green screening kit

Sequence of BCL-XL (Q07817 whole entry): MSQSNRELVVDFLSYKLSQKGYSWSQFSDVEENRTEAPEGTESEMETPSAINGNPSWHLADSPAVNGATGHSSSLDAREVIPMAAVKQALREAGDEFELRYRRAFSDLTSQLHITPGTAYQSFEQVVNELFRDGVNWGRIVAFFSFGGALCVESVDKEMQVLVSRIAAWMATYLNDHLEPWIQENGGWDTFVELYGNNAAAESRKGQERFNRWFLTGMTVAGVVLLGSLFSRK
Sequence of human CYP3A4 enzyme (P08684 whole entry): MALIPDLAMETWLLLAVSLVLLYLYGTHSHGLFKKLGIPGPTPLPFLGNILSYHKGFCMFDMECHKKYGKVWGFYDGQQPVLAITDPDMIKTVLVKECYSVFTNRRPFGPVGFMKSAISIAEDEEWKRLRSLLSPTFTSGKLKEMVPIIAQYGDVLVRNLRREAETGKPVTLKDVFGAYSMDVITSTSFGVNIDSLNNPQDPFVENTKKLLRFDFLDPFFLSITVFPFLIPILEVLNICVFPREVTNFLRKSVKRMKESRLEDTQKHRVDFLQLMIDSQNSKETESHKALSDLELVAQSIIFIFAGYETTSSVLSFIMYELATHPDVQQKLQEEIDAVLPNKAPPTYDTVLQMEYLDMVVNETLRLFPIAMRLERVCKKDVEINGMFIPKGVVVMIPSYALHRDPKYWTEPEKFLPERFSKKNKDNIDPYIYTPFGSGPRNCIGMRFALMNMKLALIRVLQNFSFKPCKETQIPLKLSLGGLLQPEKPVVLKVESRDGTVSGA

| SMILES | IC50 [1] | IC50 ([2]; values in nM) | IC50 [3] | IC50 [4] | IC50 [5] | IC50 [6] | IC50 [4, 7] | IC50 ([2]; values given in μM) |
| --- | --- | --- | --- | --- | --- | --- | --- | --- |
| CC(C)c1ccccc1[C@@H]1CCCN1C1CC2(CCN(c3ccc(C(=O)NS(=O)(=O)c4cc([N+](=O)[O-])c(NCC5(F)CCN(C6COC6)CC5)c5[nH]cnc45)c(Oc4cnc5[nH]ccc5c4)c3)CC2)C1 [compound 002] | < 10 nM | > 500 nM | < 10 nM | > 20000 nM | 0.5 to 1 nM | < 10 nM | – | – |
| COc1ccc(CN2CCN(C3CC4(CCN(c5cc(Oc6cnc7[nH]ccc7c6)c(C(=O)NS(=O)(=O)c6ccc(NCC7(F)CCN(C8COC8)CC7)c([N+](=O)[O-])c6)cn5)CC4)C3)C(c3ccccc3C(C)C)C2)cc1 (centres unmarked) [compound 053, 4-((1H-pyrrolo[2,3-b]pyrid-5-yl)oxy)-N-((4-(((4-fluoro-1-(oxocyclobut-3-yl)piperid-4-yl)methyl)amino)-3-nitrophenyl)sulfonyl)-6-(2-(2-(2-isopropylphenyl)-4-(4-methoxybenzyl)piperazin-1-yl)-7-azaspiro[3.5]non-7-yl) nicotinamide] | < 10 nM | – | < 10 nM | – | < 0.5 nM | < 10 nM | > 20000 nM | – |
| COc1ccc(CN2CCN(C3CC4(CCN(c5cc(Oc6cnc7[nH]ccc7c6)c(C(=O)NS(=O)(=O)c6ccc(NCC7CCOCC7)c([N+](=O)[O-])c6)cn5)CC4)C3)C(c3ccccc3C(C)C)C2)cc1 (centres unmarked) [compound 063, 4-((1H-pyrrolo[2,3-b]pyrid-5-yl)oxy)-6-(2-(2-(2-isopropylphenyl)-4-(4-methoxybenzyl)piperazin-1-yl)-7-azaspiro[3.5]non-7-yl)-N-((3-nitro-4-(((tetrahydro-2H-pyran-4-yl)methyl)amino)phenyl)sulfonyl) nicotinamide] | < 10 nM | – | < 10 nM | – | < 0.5 nM | < 10 nM | > 20000 nM | > 1000 nM |
| CC(C)c1ccccc1[C@@H]1CN(Cc2cccc(F)c2F)CCN1C1CC2(CCN(c3cc(Oc4cnc5[nH]ccc5c4)c(C(=O)NS(=O)(=O)c4ccc(NCC5(F)CCOCC5)c([N+](=O)[O-])c4)cc3F)CC2)C1 [compound 189, (R)-2-((1H-pyrrolo[2,3-b]pyrid-5-yl)oxy)-4-(2-(4-(2,3-difluorobenzyl)-2-(2-isopropylphenyl)piperazin-1-yl)-7-azaspiro[3.5]non-7-yl)-5-fluoro-N-((4-(((4-fluorotetrahydro-2H-pyran-4-yl)methyl)amino)-3-nitrophenyl)sulfonyl)benzamide] | < 10 nM | – | < 10 nM | – | < 0.5 nM | < 10 nM | > 20000 nM | 1900 nM |
| COc1ccc(CN2CCN(C3CC4(CCN(c5cc(Oc6cnc7[nH]ccc7c6)c(C(=O)NS(=O)(=O)c6ccc(NCC7CCOCC7)c([N+](=O)[O-])c6)cn5)CC4)C3)[C@H](c3ccccc3C(C)C)C2)cc1 [compound 257, (R)-4-((1H-pyrrolo[2,3-b]pyrid-5-yl)oxy)-6-(2-(2-(2-isopropylphenyl)-4-(4-methoxybenzyl)piperazin-1-yl)-7-azaspiro[3.5]non-7-yl)-N-((3-nitro-4-(((tetrahydro-2H-pyran-4-yl)methyl)amino)phenyl)sulfonyl) nicotinamide] | < 10 nM | – | < 10 nM | – | < 0.5 nM | < 10 nM | > 20000 nM | – |
| COc1ccc(CN2CCN(C3CC4(CCN(c5cc(Oc6cnc7[nH]ccc7c6)c(C(=O)NS(=O)(=O)c6ccc(NCC7(F)CCOCC7)c([N+](=O)[O-])c6)cn5)CC4)C3)[C@H](c3ccccc3C(C)C)C2)cc1 [compound 258, (R)-4-((1H-pyrrolo[2,3-b]pyrid-5-yl)oxy)-N-((4-(((4-fluorotetrahydro-2H-pyran-4-yl)methyl)amino)-3-nitrophenyl)sulfonyl)-6-(2-(2-(2-isopropylphenyl)-4-(4-methoxybenzyl)piperazin-1-yl)-7-azaspiro[3.5]non-7-yl) nicotinamide] | < 10 nM | – | < 10 nM | – | < 0.5 nM | < 10 nM | > 20000 nM | – |
| COc1ccc(CN2CCN(C3CC4(CCN(c5ccc(C(=O)NS(=O)(=O)c6cc([N+](=O)[O-])c(NC[C@H]7CC[C@](C)(O)CC7)c7[nH]cnc67)c(Oc6cnc7[nH]ccc7c6)c5)CC4)C3)[C@H](c3ccccc3C(C)C)C2)cc1 [compound 259, 2-((1H-pyrrolo[2,3-b]pyrid-5-yl)oxy)-N-((7-((((1r,4r)-4-hydroxy-4-methylcyclohexyl)methyl)amino)-6-nitro-1H-benzo[d]imidazol-4-yl)sulfonyl)-4-(2-((R)-2-(2-isopropylphenyl)-4-(4-methoxybenzyl)piperazin-1-yl)-7-azaspiro[3.5]non-7-yl)benzamide] | < 10 nM | – | < 10 nM | – | < 0.5 nM | < 10 nM | > 20000 nM | – |
| COc1ccc(CN2CCN(C3CC4(CCN(c5cc(Oc6cnc7[nH]ccc7c6)c(C(=O)NS(=O)(=O)c6cc([N+](=O)[O-])c(NC[C@H]7CC[C@](C)(O)CC7)c7[nH]cnc67)cc5F)CC4)C3)[C@H](c3ccccc3C(C)C)C2)cc1 [compound 262, 2-((1H-pyrrolo[2,3-b]pyrid-5-yl)oxy)-5-fluoro-N-((7-((((1r,4r)-4-hydroxy-4-methylcyclohexyl)methyl)amino)-6-nitro-1H-benzo[d]imidazol-4-yl)sulfonyl)-4-(2-((R)-2-(2-isopropylphenyl)-4-(4-methoxybenzyl)piperazin-1-yl)-7-azaspiro[3.5]non-7-yl)benzamide] | < 10 nM | – | < 10 nM | – | 0.5 to 1 nM | < 10 nM | > 20000 nM | > 1000 nM |
| COc1ccc(CN2CCN(C3CC4(CCN(c5cc(Oc6cnc7[nH]ccc7c6)c(C(=O)NS(=O)(=O)c6cc([N+](=O)[O-])c(NCC7CCOCC7)c7[nH]cnc67)cc5F)CC4)C3)[C@H](c3ccccc3C(C)C)C2)cc1 [compound 263, (R)-2-((1H-pyrrolo[2,3-b]pyrid-5-yl)oxy)-5-fluoro-4-(2-(2-(2-isopropylphenyl)-4-(4-methoxybenzyl)piperazin-1-yl)-7-azaspiro[3.5]non-7-yl)-N-((6-nitro-7-(((tetrahydro-2H-pyran-4-yl)methyl)amino)-1H-benzo[d]imidazol-4-yl)sulfonyl)benzamide] | < 10 nM | – | < 10 nM | – | 0.5 to 1 nM | < 10 nM | > 20000 nM | 1300 nM |
| COc1ccc(CN2CCN(C3CC4(CCN(c5cc(Oc6cnc7[nH]ccc7c6)c(C(=O)NS(=O)(=O)c6cc([N+](=O)[O-])c(NCC7(F)CCOCC7)c7[nH]cnc67)cc5F)CC4)C3)[C@H](c3ccccc3C(C)C)C2)cc1 [compound 264, (R)-2-((1H-pyrrolo[2,3-b]pyrid-5-yl)oxy)-5-fluoro-N-((7-(((4-fluorotetrahydro-2H-pyran-4-yl)methyl)amino)-6-nitro-1H-benzo[d]imidazol-4-yl)sulfonyl)-4-(2-(2-(2-isopropylphenyl)-4-(4-methoxybenzyl)piperazin-1-yl)-7-azaspiro[3.5]non-7-yl)benzamide] | < 10 nM | – | < 10 nM | – | 0.5 to 1 nM | < 10 nM | > 20000 nM | – |
| COc1ccc(CN2CCN(C3CC4(CCN(c5cc(Oc6cnc7[nH]ccc7c6)c(C(=O)NS(=O)(=O)c6cc([N+](=O)[O-])c(NCC7CCOCC7)c7c6OCCO7)cc5F)CC4)C3)[C@H](c3ccccc3C(C)C)C2)cc1 [compound 265, (R)-2-((1H-pyrrolo[2,3-b]pyrid-5-yl)oxy)-5-fluoro-4-(2-(2-(2-isopropylphenyl)-4-(4-methoxybenzyl)piperazin-1-yl)-7-azaspiro[3.5]non-7-yl)-N-((7-nitro-8-(((tetrahydro-2H-pyran-4-yl)methyl)amino)-2,3-dihydrobenzo[b][1,4]dioxin-5-yl)sulfonyl)benzamide] | < 10 nM | – | < 10 nM | – | 0.5 to 1 nM | < 10 nM | – | > 20000 nM |
| COc1ccc(CN2CCN(C3CC4(CCN(c5cc(Oc6cnc7[nH]ccc7c6)c(C(=O)NS(=O)(=O)c6cc([N+](=O)[O-])c(NCC7CCOCC7)c7[nH]cnc67)cn5)CC4)C3)[C@H](c3ccccc3C(C)C)C2)cc1 [compound 267, (R)-4-((1H-pyrrolo[2,3-b]pyrid-5-yl)oxy)-6-(2-(2-(2-isopropylphenyl)-4-(4-methoxybenzyl)piperazin-1-yl)-7-azaspiro[3.5]non-7-yl)-N-((6-nitro-7-(((tetrahydro-2H-pyran-4-yl)methyl)amino)-1H benzo[d]imidazol-4-yl)sulfonyl) nicotinamide] | < 10 nM | > 500 nM | < 10 nM | – | 0.5 to 1 nM | < 10 nM | – | – |

From patent US20250034135A1, “ANTI-APOPTOTIC PROTEIN BCL-2 INHIBITOR, PHARMACEUTICAL COMPOSITION AND USES THEREOF” (HANGZHOU HEALZEN THERAPEUTICS CO., LTD., priority 2021, published 2025)
